Measured values: patent US7276352B2, “Induction of β cell differentiation in human cells by stimulation of the GLP-1 receptor” (The Regents of the University of California, priority 2000, dated 2007)

B1: betacellulin (protein, UniProt P35070 32-111, looked up)
Betacellulin: DGNSTRSPETNGLLCGDPEENCAATTTQSKRKGHFSRCPKQYKHYCIKGRCRFVVAEQTPSCVCDEGYIGARCERVDLFY
notes: factor reported to be able to induce endocrine differentiation in cell lines and primary cells

How the values were obtained:
βlox5 cells [1] = experiment: RT-PCR analysis of pancreatic hormone gene expression in βlox5 cells; format: cell-based, human; details: for hormone expression in βlox5 cells: βlox5 cells expressing PDX-1, data not shown
From the text: FIG. 2: RT-PCR analysis of pancreatic hormone gene expression in βlox5. The conditions tested were βlox5 cells grown in monolayer culture, βlox5 cells infected with a retroviral vector expressing PDX-1, βlox5 cells grown as three-dimensional aggregates, and βlox5 cells treated with exendin-4. FIG. 2(A) insulin; FIG. 2(B) quantitative RT-PCR analysis of insulin gene expression; FIG. 2(C) other pancreatic hormones. Aggregation of cells into three-dimensional clusters and the retroviral vector expressing PDX-1 have been described previously (Itkin-Ansari et al., submitted). Exendin-4 (Sigma) was used at a concentration of 10 nM. RT-PCR for insulin, somatostatin, glucagon, and IAPP have been described previously (Itkin-Ansari et al., submitted). Quantitative RT-PCR was done by interpolation from a standard curve constructed using a plasmid containing the human insulin cDNA.
PDX-1 also acted synergistically with cell-cell contact to further increase the level of […] expression about 1,000-fold above the cells not expressing PDX-1, to a level similar to that found in normal human islets. To determine whether βlox5 could be induced to express pancreatic hormones, recombinant PDX-1 was expressed in βlox5 using a retroviral vector. […] Therefore, other factors were examined for their ability to induce hormone expression in βlox5 cells expressing PDX-1. Activin and betacellulin have been reported to be able to induce endocrine differentiation in cell lines and primary cells (Mashima et al., Diabetes 48:304-9 (1999), Huotari et al., Endocrinology 139, 1494-9 (1998), Mashima et al., J Clin Invest 97:1647-54 (1996), Yamaoka et al, J Clin Invest 102:294-301 (1998)). However, they had no effect on hormone expression in βlox5 cells (data not shown).
GLP-1, a small peptide cleaved from the proglucagon molecule, is an insulin secretogogue Drucker et al., Diabetes 47:159-69 (1998)).
By itself, exendin-4 had no effect on hormone expression in βlox5 (FIG. 2A, lane 8). […] The nature of the interaction between exendin-4, cell-cell contact, and PDX-1 is evident from the fact that no hormone mRNA was detectable with any one or two of the three inducing factors (FIG. 2A). […] Islet amyloid polypeptide (IAPP) mRNA, a hormone that is co-secreted with insulin, was also expressed in induced βlox5 cells (FIG. 2C, lane 2). However, the other major pancreatic hormones, glucagon, somatostatin, and pancreatic polypeptide (PP), were not induced (FIG. 2C).

βlox5 cells [2] = experiment: Analysis of transcription factors expressed in βlox5 cells (RT-PCR, Western blot); format: cell-based, human
Procedure: FIG. 3: Analysis of transcription factors expressed in βlox5 cells. FIG. 3(A) electrophoretic mobility shift assay (EMSA) of PDX-1. EM5A for PDX-1 was performed using a probe derived from the human insulin promoter A5 element. FIGS. 3(B&C) RT-PCR analysis of BETA2 and Pax6. FIG. 3(D) Western blot analysis of CREB. FIG. 3(E) EMSA of RIPE3b.
The expression of transcription factors important in β-cell development was examined to determine whether they had been induced by PDX-1, cell-cell contact, and exendin-4. […] GLP-1 has been reported to increase cAMP levels and this has been thought to be a major mechanism by which GLP-1 acts as an insulin secretogogue (Serre et al., Endocrinology 139:4448-54 (1998)). […] RIPE3b, a factor that plays a critical role in insulin gene expression but that has not yet been cloned, is expressed in βlox5 irrespective of PDX-1, cell-cell contact, or exendin-4 (FIG. 3E).

[3] = induced βlox5 cells (PDX-1, cell-cell contact, exendin-4 10 nM)

Molecule | hormone expression in βlox5 cells (βlox5 cells [1]) | hormone expression in βlox5 (βlox5 cells [1]; exendin-4 by itself, 10 nM, four days, no PDX-1, no aggregation) | Islet amyloid polypeptide (IAPP) mRNA (βlox5 cells [1]; [3]) | glucagon, somatostatin and pancreatic polypeptide (PP) expression (βlox5 cells [1]; [3]) | insulin mRNA (βlox5 cells [1]; βlox5 cells expressing PDX-1, suspension culture as three-dimensional aggregates, 10 nM exendin-4 for four days) | BETA2 expression (βlox5 cells [2]; PDX-1, cell-cell contact and exendin-4, RT-PCR) | CREB expression (βlox5 cells [2]; exendin-4 alone, independently of cell-cell contact and PDX-1, Western blot)
Activin | no effect | – | – | – | – | – | –
exendin-4 | – | no effect | expressed | not induced | substantial amount of insulin mRNA was detectable | induced only by the combination of all three inducing factors | induced
B1 | no effect | – | – | – | – | – | –
